From patent US5594135A, “Tricyclic DNA gyrase inhibitors” (Hoffmann-La Roche Inc., priority 1994, dated 1997)
Converted amounts (≈) assume the structure as drawn. Counter-ions that a name gives are not always drawn.

Experiments:
DNA gyrase = biological target: T1, DNA gyrase (Escherichia coli, UniProt P0AES4+P0AES6); assay: Inhibition of DNA gyrase activity (DNA gyrase supercoiling assay, relaxed pUC18 plasmid as substrate); assay type: biochemical, E. coli H560
T1 construct: supercoiling of relaxed pUC18
T1 sequence (P0AES4 whole entry, one chain of several): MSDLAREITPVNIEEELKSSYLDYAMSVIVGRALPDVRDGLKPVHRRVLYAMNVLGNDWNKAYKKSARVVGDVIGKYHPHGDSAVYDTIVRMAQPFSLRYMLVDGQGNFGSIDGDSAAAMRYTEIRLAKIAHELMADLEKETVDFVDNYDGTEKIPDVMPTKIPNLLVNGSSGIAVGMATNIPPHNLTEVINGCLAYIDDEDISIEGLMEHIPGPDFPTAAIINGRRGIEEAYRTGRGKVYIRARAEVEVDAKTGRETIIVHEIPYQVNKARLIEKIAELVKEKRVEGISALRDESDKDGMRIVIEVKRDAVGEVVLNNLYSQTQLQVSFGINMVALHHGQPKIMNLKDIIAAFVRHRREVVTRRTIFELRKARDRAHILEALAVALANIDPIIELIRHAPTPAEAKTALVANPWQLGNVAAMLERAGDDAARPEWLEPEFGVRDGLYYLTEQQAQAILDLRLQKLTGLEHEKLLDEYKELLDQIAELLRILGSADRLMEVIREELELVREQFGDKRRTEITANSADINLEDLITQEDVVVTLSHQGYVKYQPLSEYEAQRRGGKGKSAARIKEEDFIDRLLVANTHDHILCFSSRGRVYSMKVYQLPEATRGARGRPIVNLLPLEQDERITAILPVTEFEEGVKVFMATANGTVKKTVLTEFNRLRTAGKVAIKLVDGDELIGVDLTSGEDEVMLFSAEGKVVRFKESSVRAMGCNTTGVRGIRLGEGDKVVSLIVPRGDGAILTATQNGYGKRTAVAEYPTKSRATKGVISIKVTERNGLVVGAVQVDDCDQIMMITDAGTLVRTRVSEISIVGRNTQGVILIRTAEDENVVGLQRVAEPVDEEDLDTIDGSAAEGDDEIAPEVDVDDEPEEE
Procedure: A. Inhibition of DNA gyrase activity
The inhibition of DNA gyrase activity was measured using a DNA gyrase supercoiling assay according to R. Otter & N. Cozzarelli: Methods in Enzymology, Vol. 100, pp 171-180 (1983). DNA gyrase was isolated from E. coli H560, and relaxed pUC18 plasmid was used as substrate. The activities as regards inhibition of DNA gyrase activity, expressed as maximum non-effective concentration of the test compound (MNC in μg/ml) are compiled in the following Table 1: […]

E. coli B = assay: Antibacterial activity in vitro (agar dilution); assay type: cell-based; settings: Escherichia coli, agar dilution (MuellerHinton agar), inoculum 10^4 CFU/spot, read-out: minimum inhibitory concentration (MIC)
P. aeruginosa 799/61 = assay: Antibacterial activity in vitro (agar dilution); assay type: cell-based; settings: Pseudomonas aeruginosa, agar dilution (MuellerHinton agar), inoculum 10^4 CFU/spot, read-out: minimum inhibitory concentration (MIC)
S. aureus 25923 = assay: Antibacterial activity in vitro (agar dilution); assay type: cell-based; settings: Staphylococcus aureus, agar dilution (MuellerHinton agar), inoculum 10^4 CFU/spot, read-out: minimum inhibitory concentration (MIC)
S. aureus Smith = assay: Antibacterial activity in vitro (agar dilution); assay type: cell-based; settings: Staphylococcus aureus, agar dilution (MuellerHinton agar), inoculum 10^4 CFU/spot, read-out: minimum inhibitory concentration (MIC)
S. epidermidis 16-2 = assay: Antibacterial activity in vitro (agar dilution); assay type: cell-based; settings: Staphylococcus epidermidis, 162, agar dilution (MuellerHinton agar), inoculum 10^4 CFU/spot, read-out: minimum inhibitory concentration (MIC)
S. pyogenes 15 = assay: Antibacterial activity in vitro (agar dilution); assay type: cell-based; settings: Streptococcus pyogenes, agar dilution (MuellerHinton agar), inoculum 10^4 CFU/spot, read-out: minimum inhibitory concentration (MIC)
S. faecalis 6 = assay: Antibacterial activity in vitro (agar dilution); assay type: cell-based; settings: Enterococcus faecalis, agar dilution (MuellerHinton agar), inoculum 10^4 CFU/spot, read-out: minimum inhibitory concentration (MIC)

| SMILES | maximum non-effective concentration of the test compound (MNC) (DNA gyrase) | MIC (E. coli B) | MIC (P. aeruginosa 799/61) | MIC (S. aureus 25923) | MIC (S. aureus Smith) | MIC (S. epidermidis 16-2) | MIC (S. pyogenes 15) | MIC (S. faecalis 6) |
| --- | --- | --- | --- | --- | --- | --- | --- | --- |
| COC(=O)[C@@H]1CSCc2c(O)cc(OC)c(C)c2C(=O)O[C@H](COC(C)=O)CCC(=S)N1 [Example 11, (4R,9S)-9-acetoxymethyl-15-hydroxy-13-methoxy-12-methyl-11-oxo-6-thioxo-3,4,5,6,7,8,9,11-octahydro-1H-10,2,5-benzoxathiaazacyclotridecine-4-carboxylic acid methyl ester] | 0.02 µg/mL | > 64 µg/mL | 8 µg/mL (≈ 16.5 µM) | 0.5 µg/mL (≈ 1.03 µM) | 0.5 µg/mL (≈ 1.03 µM) | 0.12 µg/mL (≈ 0.247 µM) | 2 µg/mL (≈ 4.12 µM) | 2 µg/mL (≈ 4.12 µM) |
| COc1cc(O)c2c(c1C)C(=O)O[C@H](CO)CCC(=S)N[C@H](C(=O)NC1CCCC1)CSC2 [Example 14, (4R,9S)-15-hydroxy-9-hydroxymethyl-13-methoxy-12-methyl-11-oxo-6-thioxo-3,4,5,6,7,8,9,11-octahydro-1H-10,2,5-benzoxathiaazacyclotridecine-4-carboxylic acid cyclopentylamide] | 0.2 µg/mL | 64 µg/mL (≈ 129 µM) | 8 µg/mL (≈ 16.1 µM) | 16 µg/mL (≈ 32.2 µM) | 8 µg/mL (≈ 16.1 µM) | 1 µg/mL (≈ 2.01 µM) | 4 µg/mL (≈ 8.05 µM) | 4 µg/mL (≈ 8.05 µM) |
| COc1cc(O)c2c(c1C)C(=O)O[C@H](CO)CCC(=S)N[C@H](c1nc(C)no1)CSC2 [Example 16, (4R,9S)-15-hydroxy-9-hydroxymethyl-13-methoxy-12-methyl-4-(3-methyl-1,2,4-oxadiazol-5-yl)-6-thioxo-3,4,5,6,7,8,9,11-octahydro-1H-10,2,5-benzoxathiaazacyclotridecine-11-one] | 0.01 µg/mL | – | – | – | – | – | – | – |
| COC(=O)[C@@H]1CSCc2c(O)cc(OC)c(C)c2C(=O)OCCCCC(=S)N1 [Example 23, (R)-16-hydroxy-14-methoxy-13-methyl-12-oxo-6-thioxo-1,3,4,5,6,7,8,9,10,12-decahydro-11,2,5-benzoxathiaazacyclotetradecine-4-carboxylic acid methyl ester] | 0.01 µg/mL | 16 µg/mL (≈ 37.4 µM) | 8 µg/mL (≈ 18.7 µM) | 0.5 µg/mL (≈ 1.17 µM) | 0.25 µg/mL (≈ 0.585 µM) | 0.12 µg/mL (≈ 0.281 µM) | 2 µg/mL (≈ 4.68 µM) | 1 µg/mL (≈ 2.34 µM) |
| CCCNC(=O)[C@@H]1CSCc2c(O)cc(OC)c(C)c2C(=O)OCCCCC(=S)N1 [Example 26, (R)-16-hydroxy-14-methoxy-13-methyl-12-oxo-6-thioxo-1,3,4,5,6,7,8,9,10,12-decahydro-11,2,5-benzoxathiaazacyclotetradecine-4-carboxylic acid propylamide] | 0.04 µg/mL | > 64 µg/mL | 32 µg/mL (≈ 70.4 µM) | 2 µg/mL (≈ 4.4 µM) | 0.5 µg/mL (≈ 1.1 µM) | 0.12 µg/mL (≈ 0.264 µM) | 4 µg/mL (≈ 8.8 µM) | 2 µg/mL (≈ 4.4 µM) |
| C#CCNC(=O)[C@@H]1CSCc2c(O)cc(OC)c(C)c2C(=O)OCCCCC(=S)N1 [Example 27, (R)-16-hydroxy-14-methoxy-13-methyl-12-oxo-6-thioxo-1,3,4,5,6,7,8,9,10,12-decahydro-11,2,5benzoxathiaazacyclotetradecine-4-carboxylic acid prop-2-ynylamide] | 0.01 µg/mL | 64 µg/mL (≈ 142 µM) | 2 µg/mL (≈ 4.44 µM) | 1 µg/mL (≈ 2.22 µM) | 0.5 µg/mL (≈ 1.11 µM) | 0.12 µg/mL (≈ 0.266 µM) | 4 µg/mL (≈ 8.88 µM) | 0.5 µg/mL (≈ 1.11 µM) |
| COC(=O)[C@@H]1CSCc2c(O)cc(OC)c(C)c2C(=O)OC[C@H](O)CCC(=S)N1 [Example 32, (4R,9R)-9,16-dihydroxy-14-methoxy-13-methyl-12-oxo-6-thioxo-1,3,4,5,6,7,8,9,10,12-decahydro-11,2,5-benzoxathiaazacyclotetradecine-4-carboxylic acid methyl ester] | 0.01 µg/mL | > 64 µg/mL | 4 µg/mL (≈ 9.02 µM) | 1 µg/mL (≈ 2.25 µM) | 0.5 µg/mL (≈ 1.13 µM) | 0.25 µg/mL (≈ 0.564 µM) | 2 µg/mL (≈ 4.51 µM) | 2 µg/mL (≈ 4.51 µM) |
| COc1cc(O)c2c(c1C)C(=O)OCCCCC(=O)N[C@H](c1nc(C)no1)CSC2 [Example 33, (R)-16-hydroxy-14-methoxy-13-methyl-4-(3-methyl-1,2,4-oxadiazol-5-yl)-1,3,4,5,6,7,8,9,10,12-decahydro-11,2,5-benzoxathiaazacyclotetradecine-6,12-dione] | 0.01 µg/mL | 32 µg/mL (≈ 73.5 µM) | 4 µg/mL (≈ 9.18 µM) | 0.5 µg/mL (≈ 1.15 µM) | 0.25 µg/mL (≈ 0.574 µM) | 0.25 µg/mL (≈ 0.574 µM) | 1 µg/mL (≈ 2.3 µM) | 0.5 µg/mL (≈ 1.15 µM) |
| COc1cc(O)c2c(c1C)C(=O)OCCCCC(=O)N[C@H](c1nc(C)no1)C[S@@+]([O-])C2 [Example 111, (2S,4R)-16-hydroxy-14-methoxy-13-methyl-4-(3-methyl-1,2,4-oxadiazol-5-yl)-2-oxo-1,3,4,5,6,7,8,9,10,12-benzoxathiaazacyclotetradecin-6,12-dione] | 0.1 µg/mL | – | – | – | – | – | – | – |
| COc1cc(O)c2c(c1C)C(=O)OCCCCC(=S)N[C@H](c1nc(CN)no1)CSC2.Cl [Example 130, (R)-4-(3-aminomethyl-1,2,4-oxadiazol-5-yl)-16-hydroxy-14-methoxy-13-methyl-6-thioxo-1,3,4,5,6,7,8,9,10,12-decahydro-11,2,5-benzoxathiaazacyclotetradecin-12-one hydrochloride] | – | 32 µg/mL | 64 µg/mL | 0.5 µg/mL | 0.25 µg/mL | 0.12 µg/mL | 0.5 µg/mL | 0.5 µg/mL |
| COc1cc(O)c2c(c1C)C(=O)OCCCCC(=O)N[C@H](c1nc(CNC(C)C)no1)CSC2 [Example 132, (R)-16-hydroxy-4-[3-(isopropylamino)-methyl-1,2,4-oxadiazol-5-yl]-14-methoxy-13-methyl-1,3,4,5,6,7,8,9,10,12-decahydro-11,2,5-benzoxathiaazacyclotetradecin-6,12-dione hydrochloride] | – | 64 µg/mL | > 64 µg/mL | 4 µg/mL | 2 µg/mL | 0.5 µg/mL | 4 µg/mL | 4 µg/mL |
| COc1cc(O)c2c(c1C)C(=O)OCCCCC(=S)N[C@H](c1nc(CNC(C)=O)no1)CSC2 [Example 142, (R)-N-[5-(16-hydroxy-14-methoxy-13-methyl-12-oxo-6-thioxo-1,3,4,5,6,7,8,9,10,12-decahydro-11,2,5-benzoxathiaazacyclotetradecin-4-yl)-1,2,4-oxadiazol-3-ylmethyl]-acetamide] | – | 64 µg/mL (≈ 126 µM) | > 64 µg/mL | 2 µg/mL (≈ 3.93 µM) | 1 µg/mL (≈ 1.97 µM) | 0.12 µg/mL (≈ 0.236 µM) | 1 µg/mL (≈ 1.97 µM) | 1 µg/mL (≈ 1.97 µM) |
| COC(=O)c1c(Br)c(OC)cc(O)c1CSC[C@H](Nc1nc(-c2ccc(C(=O)O)cc2)cs1)c1nc(C)no1 [Example 171] | – | > 64 µg/mL | > 64 µg/mL | 8 µg/mL (≈ 12.6 µM) | 4 µg/mL (≈ 6.29 µM) | 1 µg/mL (≈ 1.57 µM) | 2 µg/mL (≈ 3.15 µM) | 4 µg/mL (≈ 6.29 µM) |
| COC(=O)c1c(C)c(OC)cc(O)c1CSC[C@H](Nc1nc(-c2ccccc2)ns1)c1nc(C)no1 [Example 175, (R)-3-hydroxy-5-methoxy-6-methyl-2-[2-(3-methyl-1,2,4-oxadiazol-5-yl)-2-(3-phenyl-1,2,4-thiadiazol-5-ylamino)-ethylsulfanylmethyl]-benzoic acid methyl ester] | – | > 64 µg/mL | > 64 µg/mL | 4 µg/mL (≈ 7.58 µM) | 1 µg/mL (≈ 1.9 µM) | 1 µg/mL (≈ 1.9 µM) | 4 µg/mL (≈ 7.58 µM) | 4 µg/mL (≈ 7.58 µM) |
